In this test the test system is murine E13.5 cortical stem cell cultures. The experiment in a line: Real-time imaging of lineage, death events and cell cycle. The test is classed as cell-based, mouse. Conditions: from 4 hours after plating, compared to controls. As for the experimental part: FIGS. 1a-1f are a set of images showing that Notch ligands stimulate survival in CNS stem cell (CNS SC) cultures. FIG. 1a is a bar graph […] the effect of Notch activation by Jagged-1, Delta-4, or combination in the presence of FGF2 for 5 days on plating efficiency, colony size, and BrdU incorporation (following a 4 hour BrdU pulse), over control treatments (FGF2 alone) FIG. 1b is a graph showing lineage and death events in murine E13.5 cortical stem cell cultures in the presence of FGF2 or FGF2 and Delta-4 (“D4”), D114 inhibits cell death in real-time cell lineage experiments (“x” marks time of death). CNS stem cells from embryonic day 13.5 mouse cerebral cortex were plated following one passage and visualized in real-time for 36 hours (images were taken every 2 min). Lineage and death events are represented. Cells were cultured in a closed gas chamber at 37° C. and images of selected fields were taken every two minutes. FIG. 1c is a line graph showing accumulative real-time imaging representation of death even times over 36 hours in culture with or without Delta-4. […] Cell cycle durations for the first two divisions are shown. FIG. 1e is a bar graph showing Delta-4 treatment of CNS SC cultures replaced the requirement for insulin in the medium in a plating efficiency assay. […] In the graphs, data represent Means ±standard deviation (SD). […]

In the case of “Delta-4: soluble Notch ligand Delta-4 (1389-D4) from R&D”, the death events entry was “very few death events were observed”.

Values taken from patent US20080242594A1, “Methods for Promoting Stem Cell Proliferation and Survival” (priority 2005, published 2008).
